# Values of other authors in US12589118B2, “Method of prolonging the lifespan of patients with cerebral autosomal dominant arteriopathy with subcortical infarcts and leukoencephalopathy (CADASIL) using a cerebrolysin® preparation” (EVER NEURO PHARMA GMBH, priority 2017, dated 2026).
# Key:
# [1] = transcranial Doppler
# [2] = transcranial Doppler; remark: listed apart in the source
# [3] = 200-400 mg bid in 24 months
smiles,measurement,setting,value
CC(C)c1c(C(=O)Nc2ccccc2)c(-c2ccccc2)c(-c2ccc(F)cc2)n1CC[C@@H](O)C[C@@H](O)CC(=O)O [Atorvastatin],effect on cerebral blood flow,[1],no effects
N=C(N)NCCC[C@H](N)C(=O)O [L-arginine],vasoreactivity,[2],induced-vasoreactivity
C[C@H](O)[C@H](O)[C@H]1CNc2nc(N)[nH]c(=O)c2N1 [Sapropterin],primary end-point: mean difference in reactive hyperaemia index (improvement of peripheral vasoreactivity),[3],not significant
